Measured values taken from ChEMBL document CHEMBL1221208, “ATP-competitive inhibitors of the mitotic kinesin KSP that function via an allosteric mechanism” (Nat Chem Biol, 2007).
Changes are numbered by the printed parent chain. Active and inactive are the calls of the source. The calls are words filed in the database; no cut-off is given here.

Legend:
[1] = Inhibition of human KSP KHC-L5 mutant using varying ATP levels in presence of saturating levels of microtubule by Lineweaver-Burke plot
[2] = system: T1, Kinesin-like protein KIF11 (Homo sapiens), P52732 [A133D]; test: Competitive inhibition of human KSP A133D mutant with respect to ATP using varying ATP levels in presence of saturating levels of microtubule by Lineweaver-Burke plot
T1 sequence (whole entry): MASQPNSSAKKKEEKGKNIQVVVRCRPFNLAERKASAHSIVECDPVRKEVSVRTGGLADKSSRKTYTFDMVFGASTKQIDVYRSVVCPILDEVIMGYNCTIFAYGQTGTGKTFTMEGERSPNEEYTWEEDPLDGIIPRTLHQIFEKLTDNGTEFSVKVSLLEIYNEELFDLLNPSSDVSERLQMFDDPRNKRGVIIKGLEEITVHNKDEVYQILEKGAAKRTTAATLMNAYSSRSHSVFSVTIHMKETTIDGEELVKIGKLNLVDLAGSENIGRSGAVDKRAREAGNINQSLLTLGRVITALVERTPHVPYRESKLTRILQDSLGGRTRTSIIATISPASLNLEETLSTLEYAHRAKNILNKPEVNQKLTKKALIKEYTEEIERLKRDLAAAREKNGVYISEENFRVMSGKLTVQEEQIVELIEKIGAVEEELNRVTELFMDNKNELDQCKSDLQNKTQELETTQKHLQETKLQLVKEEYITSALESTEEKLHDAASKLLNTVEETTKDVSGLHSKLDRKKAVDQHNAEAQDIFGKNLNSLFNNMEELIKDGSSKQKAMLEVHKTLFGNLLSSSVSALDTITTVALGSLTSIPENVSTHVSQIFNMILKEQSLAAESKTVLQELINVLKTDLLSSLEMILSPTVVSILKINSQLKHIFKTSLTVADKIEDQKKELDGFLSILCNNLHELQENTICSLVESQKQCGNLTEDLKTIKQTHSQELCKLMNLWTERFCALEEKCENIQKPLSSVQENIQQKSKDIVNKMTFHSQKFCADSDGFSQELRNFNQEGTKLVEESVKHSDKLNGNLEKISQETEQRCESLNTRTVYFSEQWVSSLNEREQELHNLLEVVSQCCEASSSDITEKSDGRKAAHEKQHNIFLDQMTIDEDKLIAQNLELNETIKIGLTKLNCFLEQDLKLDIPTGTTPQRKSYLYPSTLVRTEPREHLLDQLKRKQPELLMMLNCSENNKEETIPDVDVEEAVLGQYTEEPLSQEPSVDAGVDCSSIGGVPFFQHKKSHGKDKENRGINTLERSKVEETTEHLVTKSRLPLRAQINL

[3] = system: T2, Kinesin-like protein KIF11 (Homo sapiens), P52732 [D130V]; test: Competitive inhibition of human KSP D130V mutant with respect to ATP using varying ATP levels in presence of saturating levels of microtubule by Lineweaver-Burke plot
T2 sequence (whole entry): T1 sequence (whole entry) with D130V, D133A

[4] = system: T2, Kinesin-like protein KIF11 (Homo sapiens), P52732 [D130V]; test: Uncompetitive inhibition of human KSP D130V mutant with respect to microtubule using varying ATP levels in presence of saturating levels of microtubule by Lineweaver-Burke plot

| SMILES | Ki [1] | inhibition [2] | inhibition [3] | inhibition [4] |
| --- | --- | --- | --- | --- |
| O=C1CCc2cc(-c3ccc(C(F)(F)F)cc3)ccc2N1 | 2.1 nM | Active | Active | Active |
| NC(=O)Nc1ccc(-c2ccc(C(F)(F)F)cc2)cc1F | 6 nM | Active | Active | Active |
